Common to all, as to assay type: cell-based
The target in data set [1] is wild-type human cardiac sodium channel, hNav1.5 (Homo sapiens, UniProt Q14524). The experiment in a line: Late INa screening assay (QPatch whole cell patch clamp, HEK293). The essentials: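 HEK293 stably expressing hNav1.5 without beta subunits, recorded at 23-25° C. Late current was induced by 10 μM tefluthrin. Cells were depolarized from −120 mV to −20 mV for 250 ms at 0.1 Hz. Compounds were tested at 1 μM in extracellular solution, with baseline taken in 0Na-ECF; output is percent block of late INa.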
Chain of wild-type human cardiac sodium channel, hNav1.5 (Q14524 whole entry): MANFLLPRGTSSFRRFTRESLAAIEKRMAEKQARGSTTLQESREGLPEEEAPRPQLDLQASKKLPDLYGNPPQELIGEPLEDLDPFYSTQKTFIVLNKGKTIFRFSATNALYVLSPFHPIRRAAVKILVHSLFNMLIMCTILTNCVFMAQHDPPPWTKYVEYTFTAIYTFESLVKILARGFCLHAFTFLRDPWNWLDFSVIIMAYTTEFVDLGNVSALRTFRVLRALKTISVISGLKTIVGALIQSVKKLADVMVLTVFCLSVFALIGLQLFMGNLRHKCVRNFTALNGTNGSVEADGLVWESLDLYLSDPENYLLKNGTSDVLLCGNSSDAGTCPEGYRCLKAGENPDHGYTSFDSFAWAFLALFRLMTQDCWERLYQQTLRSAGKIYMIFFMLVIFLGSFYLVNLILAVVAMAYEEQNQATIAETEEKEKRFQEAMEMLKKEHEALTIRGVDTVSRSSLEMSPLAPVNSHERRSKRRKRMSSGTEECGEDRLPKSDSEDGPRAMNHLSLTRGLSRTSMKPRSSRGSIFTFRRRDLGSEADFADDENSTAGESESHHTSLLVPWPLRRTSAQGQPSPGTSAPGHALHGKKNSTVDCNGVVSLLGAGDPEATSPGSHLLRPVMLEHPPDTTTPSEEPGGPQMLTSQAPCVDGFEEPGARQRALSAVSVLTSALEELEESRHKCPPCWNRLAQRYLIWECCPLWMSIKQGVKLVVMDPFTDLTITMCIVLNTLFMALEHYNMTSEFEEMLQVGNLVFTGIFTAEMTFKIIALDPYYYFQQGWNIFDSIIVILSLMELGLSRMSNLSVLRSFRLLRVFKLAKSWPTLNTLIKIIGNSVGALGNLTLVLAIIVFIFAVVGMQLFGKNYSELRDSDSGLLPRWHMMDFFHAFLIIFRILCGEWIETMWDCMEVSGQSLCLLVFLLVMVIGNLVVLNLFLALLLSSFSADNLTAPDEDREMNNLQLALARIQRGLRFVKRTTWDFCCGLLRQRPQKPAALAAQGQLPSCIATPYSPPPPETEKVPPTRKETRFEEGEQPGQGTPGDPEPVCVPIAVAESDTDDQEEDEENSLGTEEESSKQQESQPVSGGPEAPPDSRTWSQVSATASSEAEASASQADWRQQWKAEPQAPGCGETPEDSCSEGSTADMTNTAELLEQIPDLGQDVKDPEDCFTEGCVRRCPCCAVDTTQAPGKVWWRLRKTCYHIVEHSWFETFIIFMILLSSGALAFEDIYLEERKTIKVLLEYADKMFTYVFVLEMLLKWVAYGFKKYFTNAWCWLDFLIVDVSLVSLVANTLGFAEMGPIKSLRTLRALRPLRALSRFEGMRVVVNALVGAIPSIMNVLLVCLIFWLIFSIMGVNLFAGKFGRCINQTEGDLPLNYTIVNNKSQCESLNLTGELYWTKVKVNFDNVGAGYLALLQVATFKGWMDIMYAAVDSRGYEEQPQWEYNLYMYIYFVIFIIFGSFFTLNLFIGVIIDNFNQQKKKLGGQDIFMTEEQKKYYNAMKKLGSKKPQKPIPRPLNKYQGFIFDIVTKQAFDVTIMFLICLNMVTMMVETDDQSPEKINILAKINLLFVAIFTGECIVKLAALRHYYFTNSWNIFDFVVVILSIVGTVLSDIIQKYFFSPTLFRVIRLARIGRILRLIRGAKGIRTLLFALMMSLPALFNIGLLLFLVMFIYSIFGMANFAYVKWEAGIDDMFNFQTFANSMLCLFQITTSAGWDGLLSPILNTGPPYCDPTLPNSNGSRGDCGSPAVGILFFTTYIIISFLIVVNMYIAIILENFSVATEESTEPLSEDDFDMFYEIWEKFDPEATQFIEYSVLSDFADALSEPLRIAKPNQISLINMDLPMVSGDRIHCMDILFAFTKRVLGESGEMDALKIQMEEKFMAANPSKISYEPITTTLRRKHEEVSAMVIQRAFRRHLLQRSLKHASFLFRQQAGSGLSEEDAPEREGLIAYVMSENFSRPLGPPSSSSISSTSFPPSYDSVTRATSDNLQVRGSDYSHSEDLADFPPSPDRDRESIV
For orientation: The patch-clamp technique gives a direct electrical read-out from membranes.

In data set [2] the target is T1, hNav 1.1 sodium channel isoform (Homo sapiens, UniProt P35498).
T1 construct: expressed in transfected cells; host or cells: HEK293, transient transfection (Qiagen Superfect)
Put plainly: hNav1.1 whole-cell voltage-clamp assay. The settings on record: for inhibition at 1 µM: use-dependent block, 10 Hz, read-out: NAV1.1* UDB-10HZ.

The target in another data set is hERG potassium channel (Homo sapiens, UniProt Q12809). The experiment in a line: hERG screening assay (PatchXpress, CHO cells). Further details: hERG: unit not given here. As to the method:
Compounds were also tested for their effect to block the hERG K^+ channel.
Compounds were screened to test their activity in blocking the hERG potassium channel at AVIVA Biosciences (San Deigo, Calif., USA). The hERG channel is heterologously expressed in a CHO (Chinese Hamster Ovary) cell line. Cells were maintained with standard tissue culture procedures and stable channel expression was maintained with 500 μg/mL G418 in the culture medium. Cells were harvested for testing on the PatchXpress 7000A automated patch clamp with Accumax (Innovative Cell Technologies, San Diego, Calif.) to isolate single cells.
The following solutions were used for electrophysiological recordings. The external solution contained: 2 mM CaCl2; 2 mM MgCl2; 4 mM KCl; 150 mM NaCl; 10 mM Glucose; 10 mM HEPES (pH 7.4 with 1M NaOH; osmolarity, ˜310 mOsm).
hERG channels were activated when the voltage was first stepped to −50 mV for 300 ms from the −80 mV holding potential and then stepped to +20 mV for 5 seconds. At +20 mV the channels open and then largely inactivate, so the currents are relatively small. Upon returning to −50 mV from +20 mV, hERG currents transiently become much larger as inactivation is rapidly removed and then the channel closes. The first step to −50 mV for 300 ms was used as a baseline for measuring the peak amplitude during the step to −50 mV after channel activation. The peak tail current at −50 mV was measured both under control conditions and after addition of compound, each cell serving as its own control.
All compounds were prepared as 10 mM DMSO stocks in glass vials. Stock solutions were mixed by vigorous vortexing and sonication for about 2 minutes at room temperature. For testing, compounds were diluted in glass vials using an intermediate dilution step in pure DMSO and then further diluted to working concentrations in external solution. Dilutions were prepared no longer than 20 minutes before use.
For the electrophysiological recordings, after achieving the whole-cell configuration, cells were monitored for 90 seconds to assess stability and washed with external solution for 66 seconds. The voltage protocol described above was then applied to the cells every 12 seconds and throughout the whole procedure. Only cells with stable recording parameters and meeting specified health criteria were allowed to enter the compound addition procedure.
External solution containing 0.1% DMSO (vehicle) was applied to the cells first to establish the control peak current amplitude. After allowing the current to stabilize for 3 to 5 minutes, 1 μM and then 10 μM test compounds were applied. Each compound concentration was added 4 times and cells were kept in test solution until the effect of the compound reached steady state or for a maximum of 12 minutes. […] Washout in the external solution compartment was performed until the recovery of the current reached steady state.

[3] abbreviates: HEK293, % Inhibition at 1 uM, read-out: Late INa*.
The mark [4] stands for this setting: HEK293, percent block of late INa, compound at 1 μM, 10 μM Tefluthrin, read-out: Late INa 1 μM.

Like-named read-outs stand apart in the source and are kept apart here.

As usually defined, the IC50 is the concentration at which inhibition is half-maximal.

Chain of hERG potassium channel (Q12809 whole entry): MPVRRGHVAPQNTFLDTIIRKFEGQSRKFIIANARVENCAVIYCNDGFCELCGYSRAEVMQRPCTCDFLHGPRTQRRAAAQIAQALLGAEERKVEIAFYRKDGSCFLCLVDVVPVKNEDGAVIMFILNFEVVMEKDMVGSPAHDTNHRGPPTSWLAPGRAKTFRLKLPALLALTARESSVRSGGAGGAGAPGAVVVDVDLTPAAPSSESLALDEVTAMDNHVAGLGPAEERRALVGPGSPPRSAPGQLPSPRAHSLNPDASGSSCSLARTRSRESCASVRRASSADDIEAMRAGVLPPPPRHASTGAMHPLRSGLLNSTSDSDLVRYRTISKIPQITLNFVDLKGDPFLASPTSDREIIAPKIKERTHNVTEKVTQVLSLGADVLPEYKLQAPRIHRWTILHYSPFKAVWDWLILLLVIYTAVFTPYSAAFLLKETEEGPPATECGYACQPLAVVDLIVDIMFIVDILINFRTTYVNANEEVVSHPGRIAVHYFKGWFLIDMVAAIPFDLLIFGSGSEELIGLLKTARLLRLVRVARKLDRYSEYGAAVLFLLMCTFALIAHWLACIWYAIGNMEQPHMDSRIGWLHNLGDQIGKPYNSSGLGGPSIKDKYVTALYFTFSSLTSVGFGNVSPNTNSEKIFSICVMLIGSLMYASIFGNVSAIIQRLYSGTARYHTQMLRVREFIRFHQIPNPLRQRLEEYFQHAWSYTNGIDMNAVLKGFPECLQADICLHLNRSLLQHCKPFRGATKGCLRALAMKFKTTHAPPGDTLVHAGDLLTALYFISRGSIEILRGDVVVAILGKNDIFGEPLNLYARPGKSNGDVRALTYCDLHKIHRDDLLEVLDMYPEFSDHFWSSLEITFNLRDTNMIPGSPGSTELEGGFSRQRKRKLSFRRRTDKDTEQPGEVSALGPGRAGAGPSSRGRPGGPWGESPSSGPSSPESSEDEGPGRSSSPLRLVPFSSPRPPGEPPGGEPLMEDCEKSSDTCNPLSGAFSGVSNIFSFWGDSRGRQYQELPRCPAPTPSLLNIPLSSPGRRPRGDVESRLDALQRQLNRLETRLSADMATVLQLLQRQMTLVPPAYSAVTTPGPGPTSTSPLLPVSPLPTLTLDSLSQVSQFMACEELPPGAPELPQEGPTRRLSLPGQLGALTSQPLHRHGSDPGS

Turning to `O=C1CN(Cc2ccccc2)C(=O)c2cc(-c3ccc(C(F)(F)F)cc3)ccc2N1` [Compound X-8, 4-benzyl-7-(4-(trifluoromethyl)phenyl)-3,4-dihydro-1H-benzo[e][1,4]diazepine-2,5-dione], the inhibition at 1 µM in data set [1] (setting [3]) is 50%; in data set [1] (setting [4]), 50%; in data set [2], -12%. The same compound had a hERG at hERG potassium channel below 10.

With `O=C1c2cc(-c3ccc(C(F)(F)F)cc3)ccc2OC[C@H]2CN(CC(F)F)CCN12` [II-22, (R)-2-(2,2-difluoroethyl)-8-(4-(trifluoromethyl)phenyl)-3,4,12,12a-tetrahydro-1H-benzo[f]pyrazino[2,1-c][1,4]oxazepin-6(2H)-one], the inhibition at 1 µM in data set [1] (setting [3]) worked out at 30%; in data set [1] (setting [4]) it was 30%; in data set [2], 3%. For the same compound, the hERG on hERG potassium channel is 16.

With `O=C1c2cc(-c3ccc(OC(F)(F)F)cc3)ccc2OCCN1Cc1ncccn1` [II-73, 4-(pyrimidin-2-ylmethyl)-7-(4-(trifluoromethoxy)phenyl)-3,4-dihydrobenzo[f][1,4]oxazepin-5(2H)-one], the inhibition at 1 µM in data set [1] (setting [3]) and in data set [1] (setting [4]) was 42% throughout. Further, the half-inhibitory concentration (IC50) in data set [2] (frequency of 10 Hz, read-out: IC50 block of hNav 1.1 peak INa) was above 100 µM; in data set [2] (frequency of 25 Hz, read-out: IC50 block of hNav 1.1) it was 3.4 µM.

Take `O=C1c2cc(-c3ccc(C(F)(F)F)cc3)ccc2OC[C@H]2CN(CC(F)(F)F)CCN12` [II-83, (R)-2-(2,2,2-trifluoroethyl)-8-(4-(trifluoromethyl)phenyl)-3,4,12,12a-tetrahydro-1H-benzo[f]pyrazino[2,1-c][1,4]oxazepin-6(2H)-one]: the figures for the inhibition at 1 µM in data set [1] (setting [3]), in data set [1] (setting [4]) and in data set [2] were 31%, 31% and -2%, respectively. On hERG potassium channel, this compound showed a hERG of 21.

As for `O=C1c2cc(-c3ccc(Cl)cc3)ccc2OCCN1Cc1ncccn1` [II-88, 7-(4-chlorophenyl)-4-(pyrimidin-2-ylmethyl)-3,4-dihydrobenzo[f][1,4]oxazepin-5(2H)-one], the figures for the inhibition at 1 µM in data set [1] (setting [3]), in data set [1] (setting [4]) and in data set [2] were 41%, 41% and -10%, respectively. The compound also showed a hERG at hERG potassium channel of 26.

Take `CC(C)(C)c1ccc(-c2ccc3c(c2)C(=O)N(Cc2ncccn2)CCO3)cc1` [II-98, 7-(4-tert-butylphenyl)-4-(pyrimidin-2-ylmethyl)-3,4-dihydrobenzo[f][1,4]oxazepin-5(2H)-one]: the values for the inhibition at 1 µM in data set [1] (setting [3]), in data set [1] (setting [4]) and in data set [2] were 39%, 39% and -1%, respectively. At hERG potassium channel, this compound had a hERG below 10.

`O=C1c2cc(-c3ccc(C(F)(F)F)cc3F)ccc2OCCN1Cc1ncccn1` [II-105, 7-(2-fluoro-4-(trifluoromethyl)phenyl)-4-(pyrimidin-2-ylmethyl)-3,4-dihydrobenzo[f][1,4]oxazepin-5(2H)-one]: the inhibition at 1 µM in data set [1] (setting [3]) is 45%; in data set [1] (setting [4]) it was 45%; in data set [2], -17%. Also, the hERG at hERG potassium channel was below 10. The “inhibited (or reduced) the activity of the hERG potassium channel” value on hERG potassium channel (at 1 μM) is given as below 10%.

`O=C1c2cc(-c3ccc(C(F)(F)F)cc3Cl)ccc2OCCN1Cc1ncccn1` [II-110, 7-(2-chloro-4-(trifluoromethyl)phenyl)-4-(pyrimidin-2-ylmethyl)-3,4-dihydrobenzo[f][1,4]oxazepin-5(2H)-one]: the inhibition at 1 µM is 35% in data set [1] (setting [3]), 35% in data set [1] (setting [4]) and -4% in data set [2]. The same compound gave a hERG at hERG potassium channel of 26.

As for `O=C1c2cc(-c3ccc(Cl)cc3F)ccc2OCCN1Cc1ncccn1` [II-117, 7-(4-chloro-2-fluorophenyl)-4-(pyrimidin-2-ylmethyl)-3,4-dihydrobenzo[f][1,4]oxazepin-5(2H)-one], the inhibition at 1 µM in data set [1] (setting [3]) is 37%; in data set [1] (setting [4]), 37%; in data set [2], -11%. On hERG potassium channel, this compound yielded a hERG below 10.

Regarding `O=C1c2cc(-c3ccc(C(F)(F)F)cc3)ccc2OCCN1Cc1cn2ccccc2n1` [II-129, 4-(imidazo[1,2-a]pyridin-2-ylmethyl)-7-(4-(trifluoromethyl)phenyl)-3,4-dihydrobenzo[f][1,4]oxazepin-5(2H)-one], the inhibition at 1 µM in data set [1] (setting [3]) came to 33%; in data set [1] (setting [4]), 33%; in data set [2] it was 8%. The hERG at hERG potassium channel is 17.

For `O=C(c1ncccn1)N1CCOc2ccc(-c3ccc(OC(F)(F)F)cc3)cc2C1` [III-1, pyrimidin-2-yl(7-(4-(trifluoromethoxy)phenyl)-2,3-dihydrobenzo[f][1,4]oxazepin-4(5H)-yl)methanone], the inhibition at 1 µM is 33% in data set [1] (setting [3]), 33% in data set [1] (setting [4]) and -1% in data set [2]. The compound further yielded a hERG on hERG potassium channel below 10.

Take `O=C1c2cc(C#Cc3ccc(OC(F)(F)F)cc3)ccc2OCCN1Cc1ncccn1` [VIII-4, 4-(pyrimidin-2-ylmethyl)-7-((4-(trifluoromethoxy)phenyl)ethynyl)-3,4-dihydrobenzo[f][1,4]oxazepin-5(2H)-one]: the inhibition at 1 µM in data set [1] (setting [3]) was 61%; in data set [1] (setting [4]), 61%; in data set [2], 5%. At hERG potassium channel, this compound came in with a hERG of 30.

Consider `O=C1c2cc(C#Cc3ccc(C(F)(F)F)cc3)ccc2OCCN1Cc1ncccn1` [VIII-6, 4-(pyrimidin-2-ylmethyl)-7-((4-(trifluoromethyl)phenyl)ethynyl)-3,4-dihydrobenzo[f][1,4]oxazepin-5(2H)-one], for which the inhibition at 1 µM turned out to be 38% in data set [1] (setting [3]), 38% in data set [1] (setting [4]) and 6% in data set [2]. The same compound gave a hERG at hERG potassium channel below 10.
